The text below walks through data of patent US6998395B2, “Administration of estradiol metabolites for the treatment or prevention of obesity, metabolic syndrome, diabetes, and vascular and renal disorders” (University of Pittsburg,, priority 2001, dated 2006).

The conditions of data set [1]: Kernan et al., 2000; cited from earlier work.
In data set [2] the test system is male ZSF1 rats. Kind of data set: Treatment of male ZSF1 rats for 24 weeks with 2-hydroxyestradiol or 2-methoxyestradiol. Format: in vivo, rat. On the procedure:
Male ZSF1 rats were treated continuously for 24 weeks with polyethylene glycol 400 (PEG 400) (Sigma, St. Louis, Mo.) or one of three doses of 2-hydroxyestradiol or 2-methoxyestradiol (Steraloids, Inc. Newport, R.I.) dissolved in PEG 400. The three doses were 1 ug/kg/hr, 3 ug/kg/hr or 10 ug/kg/hr. Female ZSF1 rats were treated continuously for 24 weeks with either PEG 400 or 10 ug/kg/hr of 2-hydroxyestradiol. Female ZSF1 rats were ovarectomized at 11 weeks of age. For all animals, both male and female, treatments with estradiol metabolites were begun at approximately 13 weeks of age. One group of male ZSF1 rats received only PEG 400 but were pair fed to receive the same daily food intake as the male ZSF1 rats treated with 10 ug/kg/hr 2-hydroxyestradiol. Treatment was administered via subcutaneous implanted pumps (Alzet Osmotic Pump, Model 2ML4, Alza Corporation, Palo Alto, Calif.). The study was designed to evaluate treatment effects and dose responses on body weight, food intake, water intake, urine output, urinary protein excretion, cholesterol levels, plasma glucose levels and glucose tolerance.
Stock solutions of both 2-hydroxyestradiol and 2-methoxyestradiol were made by dissolving the required amount of estradiol metabolite in PEG 400. This solution was diluted in PEG 400 to deliver the three required doses based on the mean weight of each treatment group and the stated volume delivery rate for each lot of osmotic pumps in the study. This stock solution was prepared fresh prior to each osmotic pump implantation in each group. The control solution of PEG 400 was created in the same manner.
All treatments were administered via a subcutaneously implanted osmotic pump (Alzet Osmotic Pump, Model 2ML4, Alza Corporation, Palo Alto, Calif.). Each lot of osmotic pumps were delivered with the stated rate of delivery and formulation concentrations were adjusted to ensure delivery of 1,3, or 10 ug/kg/hr based on the stated rate of delivery of each lot. Doses were adjusted for the mean weight of the animals in the treatment group obtained 24 hours prior to implantation of the osmotic minipump.
Animals were anesthetized prior to implantation of an osmotic minipump with halothane and oxygen (2.5 liter/min) delivered by a Fluotec 3 anesthetic device (Ohmeda, Steeton, UK). After lightly anesthetizing each animal, implantation was accomplished by shaving the back and creating a half-inch incision in which to insert the osmotic minipump. The incision was then closed with wound clips that were removed in seven days. Osmotic minipumps were replaced at 33-day intervals and each time a particular animal received an osmotic minipump, the insertion point was changed.
Metabolic cages (Nalgene, Rochester, N.Y.) were used in this study. Animals were placed in metabolic cages for 48 hours. The first 24-hour period was considered an acclimation period, while food and fluid intake and urine volume were measured during the second 24-hour period. Additionally, a tail vein sample was obtained to measure blood glucose, sodium, potassium, albumin and creatinine. The blood was further analyzed to assess creatinine clearance, fractional sodium excretion, fractional potassium excretion and fractional albumin excretion. In addition, the following criteria were also assessed while the animals were in the metabolic cages: body weight, feed intake, water intake, urine output, urinary protein, urinary albumin, urinary glucose, urinary sodium and urinary potassium.
Body weights were assessed 24 hours before pump implantation and those weights were used to calculate the dosage of drug or vehicle to be given to each animal based on the mean body weight of each group. Animals were weighed approximately once every two months prior to being placed in a metabolic cage.
Food intake was measured by filling the food containers with standard powder laboratory food up to a total weight of 250 grams. […]

Data set [3] relates to male ZSF1 rats. The data set is described as above. Format: in vivo, rat. Particulars: 10 ug/kg/hr, 28 weeks, versus control animals.
The next data set has as its system rats. Particulars: Oparil et al., Circulation 95:1301 (1997); cited from earlier work.
[4] abbreviates: male, 10 ug/kg/hr, 24 weeks, versus control animals.
Setting [5] is: male, 1, 3 or 10 ug/kg/hr s.c. osmotic pump, 24 weeks, versus control.

In the case of `CC(N)C(O)c1ccccc1` (stereo not drawn) [phenylpropanolamine], in data set [1], the “Adverse effect (stroke)” value is on record as “causes stroke”.

Consider `COc1cc2c(cc1O)CC[C@@H]1[C@@H]2CC[C@]2(C)[C@@H](O)CC[C@@H]12` [2-methoxyestradiol, estra-1,3,5 (10)-triene-2-methoxy-3,17-diol (17β)], for which the “Leptin levels (FIG. 11)” value in the data set on male ZSF1 rats [2] (male, 10 ug/kg/hr, 20 weeks, versus control animals) is “clearly reduced”. In the data set with male ZSF1 rats [2] (setting [4]), the “24-hour urine output (FIG. 13)” value is “lower” and the “24-hour water intake (FIG. 12)” value is recorded as “lower”. Also, in the data set with male ZSF1 rats [2] (male, 10 ug/kg/hr, 24 weeks, versus control groups), the “Blood urea nitrogen (FIG. 10)” value is listed as “lower”. Moreover, the “Plasma level of glucose after administration of 2 g/4 ml/kg glucose (oral glucose tolerance test, FIGS. 8 and 9)” value in the data set with male ZSF1 rats [2] (male, 10 ug/kg/hr, treated for 14 to 15 weeks, versus control groups) is on record as “lower”. Also, in the data set with male ZSF1 rats [2] (setting [5]), the “Body weight gain (FIGS. 4 and 5)” value was “less body weight gain”; the Food intake entry is “lower food intake”. In addition, in the data set with male ZSF1 rats [2] (male, 1, 3 or 10 ug/kg/hr, after 24 weeks of treatment, versus control animals), the “Urinary protein excretion (FIG. 7)” value is listed as “lower”. In the data set with male ZSF1 rats [3], the “Glycated hemoglobin (HbA1c) (FIG. 14)” value is on record as “lower”.

With `C[C@]12CC[C@@H]3c4ccc(O)cc4CC[C@H]3[C@@H]1CC[C@@H]2O` [17β-estradiol], in the data set with rats, the “Body weight of rats” value is reported as “reduction” and the Vascular protection result is “vascular protection”.
